pEC50, pIC50: −log10 of the molar value.
Legend:
[1] = molecular target: Recombinant human Cbl-b (aa 36-427) (Homo sapiens, UniProt Q13191); assay: Cbl-b Biochemical Assay (TR-FRET); settings: read-out: TR-FRET hCbl-b IC50
[2] = system: Jurkat (clone E6-1) cells with NFAT luciferase reporter; assay: Jurkat reporter assay (NFAT Luciferase); type: cell-based; settings: Homo sapiens; Jurkat NFAT luciferase reporter cells, anti-CD3 stimulation, 6 hr; read-out: Jurkat NFAT EC50
[3] = molecular target: T1, Recombinant human c-Cbl (aa 47-435) (Homo sapiens, UniProt P22681); assay: c-Cbl Biochemical Assay (TR-FRET); settings: hc-Cbl Biochemical Assay (TR-FRET); read-out: TR-FRET hcCbl IC50
T1 sequence (P22681 47-435): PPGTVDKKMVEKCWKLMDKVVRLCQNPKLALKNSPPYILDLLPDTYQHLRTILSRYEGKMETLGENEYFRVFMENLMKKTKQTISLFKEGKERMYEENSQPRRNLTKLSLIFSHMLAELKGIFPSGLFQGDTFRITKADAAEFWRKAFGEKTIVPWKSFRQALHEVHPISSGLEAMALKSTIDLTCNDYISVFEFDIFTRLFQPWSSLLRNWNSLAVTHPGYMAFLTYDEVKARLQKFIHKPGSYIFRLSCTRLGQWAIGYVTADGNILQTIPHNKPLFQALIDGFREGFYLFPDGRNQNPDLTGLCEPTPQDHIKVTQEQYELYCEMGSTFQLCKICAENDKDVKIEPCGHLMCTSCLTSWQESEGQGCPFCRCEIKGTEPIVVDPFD

Sequence of Recombinant human Cbl-b (aa 36-427) (Q13191 36-427): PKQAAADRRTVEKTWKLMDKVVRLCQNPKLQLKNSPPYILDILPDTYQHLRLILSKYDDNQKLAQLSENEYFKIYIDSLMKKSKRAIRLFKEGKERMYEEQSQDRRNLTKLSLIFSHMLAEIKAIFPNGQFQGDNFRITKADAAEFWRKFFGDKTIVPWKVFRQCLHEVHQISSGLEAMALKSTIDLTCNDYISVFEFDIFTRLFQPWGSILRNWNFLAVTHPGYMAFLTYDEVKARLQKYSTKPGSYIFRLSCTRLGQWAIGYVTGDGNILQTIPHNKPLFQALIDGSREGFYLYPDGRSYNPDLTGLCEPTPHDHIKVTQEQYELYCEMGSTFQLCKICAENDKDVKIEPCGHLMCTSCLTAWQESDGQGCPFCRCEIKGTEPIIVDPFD

Row | pIC50 [1] | pEC50 [2] | pIC50 [3] | Structure (SMILES)
1 | > 6.70 | > 6.70 | > 6.70 | Cc1cc(CN[C@@H]2CCC[C@@H]2O)c(F)c2nc(-c3cccc(-c4ccc(F)cc4-c4nncn4C)c3)oc12 [IQ-8, (1S,2R)-2-(((4-Fluoro-2-(4′-fluoro-2′-(4-methyl-4H-1,2,4-triazol-3-yl)-[1,1′-biphenyl]-3-yl)-7-methylbenzo[d]oxazol-5-yl)methyl)amino)cyclopentan-1-ol]
2 | > 6.70 | 6.00 to 6.70 | 6.00 to 6.70 | COCCNCc1cc2nc(-c3cccc(-c4ccc(F)cc4-c4nncn4C)c3)oc2cc1F [IR-1, N-((6-Fluoro-2-(4′-fluoro-2′-(4-methyl-4H-1,2,4-triazol-3-yl)-[1,1′-biphenyl]-3-yl)benzo[d]oxazol-5-yl)methyl)-2-methoxyethan-1-amine]
3 | > 6.70 | > 6.70 | > 6.70 | COCCNCc1cc(F)c2oc(-c3cccc(-c4ccc(F)cc4-c4nncn4C)c3)nc2c1 [IS-1, N-((7-Fluoro-2-(4′-fluoro-2′-(4-methyl-4H-1,2,4-triazol-3-yl)-[1,1′-biphenyl]-3-yl)benzo[d]oxazol-5-yl)methyl)-2-methoxyethan-1-amine]
4 | > 6.70 | > 6.70 | > 6.70 | [2H]C([2H])([2H])N(Cc1cc(C(F)(F)F)c2oc(-c3cccc(-c4ccc(F)cc4-c4nncn4C)c3)nc2c1)[C@@H]1CCC[C@@H]1O [IT-1, (1S,2R)-2-(((2-(4′-Fluoro-2′-(4-methyl-4H-1,2,4-triazol-3-yl)-[1,1′-biphenyl]-3-yl)-7-(trifluoromethyl)benzo[d]oxazol-5-yl)methyl)(methyl-d3)amino)cyclopentan-1-ol]
5 | > 6.70 | 6.00 to 6.70 | 6.00 to 6.70 | Cn1cnnc1-c1cc(F)ccc1-c1cccc(-c2nc3cc(CN4CCCC[C@@H]4CO)cc(C(F)(F)F)c3o2)c1 [IV-2, (R)-(1-((2-(4′-Fluoro-2′-(4-methyl-4H-1,2,4-triazol-3-yl)-[1,1′-biphenyl]-3-yl)-7-(trifluoromethyl)benzo[d]oxazol-5-yl)methyl)piperidin-2-yl)methanol]
6 | > 6.70 | > 6.70 | > 6.70 | Cn1cnnc1-c1cc(F)ccc1-c1cccc(-c2nc3cc(CNCC4(O)CCC4)c(F)c(F)c3o2)c1 [IW-1, 1-((((6,7-Difluoro-2-(4′-fluoro-2′-(4-methyl-4H-1,2,4-triazol-3-yl)-[1,1′-biphenyl]-3-yl)benzo[d]oxazol-5-yl)methyl)amino)methyl)cyclobutan-1-ol]
7 | > 6.70 | > 6.70 | > 6.70 | Cn1cnnc1-c1cc(F)ccc1-c1cccc(-c2nc3cc(CNCC4CCC4)c(F)c(F)c3o2)c1 [IX-1, 1-Cyclobutyl-N-((6,7-difluoro-2-(4′-fluoro-2′-(4-methyl-4H-1,2,4-triazol-3-yl)-[1,1′-biphenyl]-3-yl)benzo[d]oxazol-5-yl)methyl)methanamine]
8 | > 6.70 | > 6.70 | > 6.70 | COCCNCc1cc2nc(-c3cccc(-c4ccc(F)cc4-c4nncn4C)c3)oc2c(F)c1F [IY-1, N-((6,7-Difluoro-2-(4′-fluoro-2′-(4-methyl-4H-1,2,4-triazol-3-yl)-[1,1′-biphenyl]-3-yl)benzo[d]oxazol-5-yl)methyl)-2-methoxyethan-1-amine]

More lines, now with the values behind:

Row | Structure (SMILES) | pIC50 [1] | pEC50 [2] | pIC50 [3]
9 | CN(Cc1cc(C(F)(F)F)c2oc(-c3cccc(-c4ccc(F)cc4-c4nncn4C)c3)nc2c1)CC1(O)CCC1 [IA-1, 1-((((2-(4′-Fluoro-2′-(4-methyl-4H-1,2,4-triazol-3-yl)-[1,1′-biphenyl]-3-yl)-7-(trifluoromethyl)benzo[d]oxazol-5-yl)methyl)(methyl)amino)methyl)cyclobutan-1-ol] | > 6.70 | > 6.70 | > 6.70
10 | Cn1cnnc1-c1cc(F)ccc1-c1cccc(-c2nc3nc(CN[C@@H]4CCC[C@@H]4O)ccc3o2)c1 [IB-7, (1S,2R)-2-(((2-(4′-Fluoro-2′-(4-methyl-4H-1,2,4-triazol-3-yl)-[1,1′-biphenyl]-3-yl)oxazolo[4,5-b]pyridin-5-yl)methyl)amino)cyclopentan-1-ol] | > 6.70 | 5.00 to 6.00 | 6.00 to 6.70
11 | Cc1cc(CNCC2(F)CCC2)cc2nc(-c3cccc(-c4ccc(F)cc4-c4nncn4C)c3)oc12 [IC-1, 1-(2-(4′-Fluoro-2′-(4-methyl-4H-1,2,4-triazol-3-yl)-[1,1′-biphenyl]-3-yl)-7-methylbenzo[d]oxazol-5-yl)-N-((1-fluorocyclobutyl)methyl)methanamine] | > 6.70 | 6.00 to 6.70 | > 6.70
12 | CN(Cc1cc(C(F)(F)F)c2[nH]c(-c3cccc(-c4ccc(F)cc4-c4nncn4C)c3)nc2c1)[C@@H]1CCC[C@@H]1O [ID-3, (1S,2R)-2-(((2-(4′-Fluoro-2′-(4-methyl-4H-1,2,4-triazol-3-yl)-[1,1′-biphenyl]-3-yl)-7-(trifluoromethyl)-1H-benzo[d]imidazol-5-yl)methyl)(methyl)amino)cyclopentan-1-ol] | > 6.70 | > 6.70 | > 6.70
13 | CN(Cc1cc(C(F)(F)F)c2oc(-c3cccc(-c4ccc(F)cc4-c4nncn4C)c3)nc2c1)CC1CCC1 [IE-1, 1-Cyclobutyl-N-((2-(4′-fluoro-2′-(4-methyl-4H-1,2,4-triazol-3-yl)-[1,1′-biphenyl]-3-yl)-7-(trifluoromethyl)benzo[d]oxazol-5-yl)methyl)-N-methylmethanamine] | > 6.70 | 6.00 to 6.70 | 6.00 to 6.70
14 | Cn1cnnc1-c1cc(F)ccc1-c1cccc(-c2nc3cc(NCCN4CC(F)(F)C4)cc(C(F)(F)F)c3o2)c1 [IF-2, N-(2-(3,3-Difluoroazetidin-1-yl)ethyl)-2-(4′-fluoro-2′-(4-methyl-4H-1,2,4-triazol-3-yl)-[1,1′-biphenyl]-3-yl)-7-(trifluoromethyl)benzo[d]oxazol-5-amine] | > 6.70 | 5.00 to 6.00 | 6.00 to 6.70
15 | O[C@H]1CCC[C@H]1NCc1cc(C(F)(F)F)c2oc(-c3cccc(-c4ccc(F)cc4-c4nnco4)c3)nc2c1 [IG-6, (1S,2R)-2-(((2-(4′-Fluoro-2′-(1,3,4-oxadiazol-2-yl)-[1,1′-biphenyl]-3-yl)-7-(trifluoromethyl)benzo[d]oxazol-5-yl)methyl)amino)cyclopentan-1-ol] | > 6.70 | 6.00 to 6.70 | > 6.70
16 | COc1cc(CN[C@@H]2CCC[C@@H]2O)cn2nc(-c3cccc(-c4ccc(F)cc4-c4nncn4C)c3)nc12 [IH-9, (1S,2R)-2-(((2-(4′-Fluoro-2′-(4-methyl-4H-1,2,4-triazol-3-yl)-[1,1′-biphenyl]-3-yl)-8-methoxy-[1,2,4]triazolo[1,5-a]pyridin-6-yl)methyl)amino)cyclopentan-1-ol] | > 6.70 | 6.00 to 6.70 | > 6.70
17 | CC(=O)NCc1cc(C(F)(F)F)c2oc(-c3cccc(-c4ccc(F)cc4-c4nncn4C)c3)nc2c1 [II-1, N-((2-(4′-Fluoro-2′-(4-methyl-4H-1,2,4-triazol-3-yl)-[1,1′-biphenyl]-3-yl)-7-(trifluoromethyl)benzo[d]oxazol-5-yl)methyl)acetamide] | 5.00 to 6.00 | 5.00 to 6.00 | 6.00 to 6.70
18 | Cc1cc(CNCC2(O)CCC2)cc2nc(-c3cccc(-c4ccc(F)cc4-c4nncn4C)c3)oc12 [IJ-1, 1-((((2-(4′-Fluoro-2′-(4-methyl-4H-1,2,4-triazol-3-yl)-[1,1′-biphenyl]-3-yl)-7-methylbenzo[d]oxazol-5-yl)methyl)amino)methyl)cyclobutan-1-ol] | > 6.70 | > 6.70 | > 6.70
19 | Cc1cc(CNCC(C)(C)O)cc2nc(-c3cccc(-c4ccc(F)cc4-c4nncn4C)c3)oc12 [IK-1, 1-(((2-(4′-Fluoro-2′-(4-methyl-4H-1,2,4-triazol-3-yl)-[1,1′-biphenyl]-3-yl)-7-methylbenzo[d]oxazol-5-yl)methyl)amino)-2-methylpropan-2-ol] | > 6.70 | > 6.70 | > 6.70
20 | Cn1cnnc1-c1cc(F)ccc1-c1cccc(-c2nc3cc(CN4C[C@@H]5C[C@H]4CO5)cc(C(F)(F)F)c3o2)c1 [IN-2, 5-(((1S,4S)-2-Oxa-5-azabicyclo[2.2.1]heptan-5-yl)methyl)-2-(4′-fluoro-2′-(4-methyl-4H-1,2,4-triazol-3-yl)-[1,1′-biphenyl]-3-yl)-7-(trifluoromethyl)benzo[d]oxazole] | 5.00 to 6.00 | 5.00 to 6.00 | 5.00 to 6.00
21 | Cn1cnnc1-c1cc(F)ccc1-c1cccc(-c2nc3cc(CN[C@@H]4CCC[C@@H]4O)c(F)cc3o2)c1 [IP-7, (1S,2R)-2-(((6-Fluoro-2-(4′-fluoro-2′-(4-methyl-4H-1,2,4-triazol-3-yl)-[1,1′-biphenyl]-3-yl)benzo[d]oxazol-5-yl)methyl)amino)cyclopentan-1-ol] | > 6.70 | > 6.70 | > 6.70
22 | CO[C@H]1CCCN(Cc2cc(C(F)(F)F)c3oc(-c4cccc(-c5ccc(F)cc5-c5nncn5C)c4)nc3c2)C1 [IU-2, (S)-2-(4′-Fluoro-2′-(4-methyl-4H-1,2,4-triazol-3-yl)-[1,1′-biphenyl]-3-yl)-5-((3-methoxypiperidin-1-yl)methyl)-7-(trifluoromethyl)benzo[d]oxazole] | > 6.70 | 6.00 to 6.70 | > 6.70
